Each structure is given as a SMILES string.

Data on 22 compounds can be found in patent US20260062412A1, “NITROGEN-CONTAINING HETEROCYCLIC COMPOUND HAVING MYT1 INHIBITORY ACTIVITY” (CHUGAI SEIYAKU KABUSHIKI KAISHA, priority 2023, published 2026).

For assay [1], the system named is LU65. In words: Cytotoxicity test with pemetrexed upon addition of each example compound (CellTiter-Glo). The conditions noted are these: combination with pemetrexed, LU65 cells, 7 days; maximum value, at the MYT1 inhibitor and pemetrexed concentrations. The class given is cell-based, human. The procedure, abridged: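 LU65 lung cancer cells (RB1 S82* truncation, reduced RB1 function) in RPMI-1640/10% FBS were treated with pemetrexed plus each compound over concentration series, 7 days at 37 °C. ATP measured by CellTiter-Glo luminescence; survival relative to DMSO after blank subtraction, cytotoxicity = 100% minus survival.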

The target of assay [2] is T1, MYT1 protein (Homo sapiens (Human), UniProt Q99640). Kind of assay: MYT1 kinase activity inhibition test (ELISA, phosphorylation of Y15 of CDK1). The class given is biochemical. The conditions noted are these: phosphorylation level of Y15 of CDK1 protein caused by MYT1 protein, 60 minutes. Summed up:
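Recombinant human MYT1 (5 nM working solution) was incubated 60 min at room temperature with compound and ATP (83.3 μM working solution) on a CDK1-coated ELISA plate. CDK1 Y15 phosphorylation was detected with HRP anti-phosphotyrosine, read as A450 minus A590. Inhibition was normalised to no-compound (100%) and no-enzyme (0%) signals to derive IC50.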
For orientation: An ELISA detects its analyte on a solid surface through an enzyme-linked reagent.

In assay [3] the target is T1, MYT1 protein. In words: Test for binding to ATP binding site of MYT1 (Kinase Tracer 178 / Eu-Anti-GST antibody TR-FRET). The conditions noted are these: ATP binding site of MYT1, 30 minutes at room temperature. For orientation: TR-FRET usually uses a lanthanide donor and a delayed reading to cut background.

T1 sequence (Q99640 whole entry): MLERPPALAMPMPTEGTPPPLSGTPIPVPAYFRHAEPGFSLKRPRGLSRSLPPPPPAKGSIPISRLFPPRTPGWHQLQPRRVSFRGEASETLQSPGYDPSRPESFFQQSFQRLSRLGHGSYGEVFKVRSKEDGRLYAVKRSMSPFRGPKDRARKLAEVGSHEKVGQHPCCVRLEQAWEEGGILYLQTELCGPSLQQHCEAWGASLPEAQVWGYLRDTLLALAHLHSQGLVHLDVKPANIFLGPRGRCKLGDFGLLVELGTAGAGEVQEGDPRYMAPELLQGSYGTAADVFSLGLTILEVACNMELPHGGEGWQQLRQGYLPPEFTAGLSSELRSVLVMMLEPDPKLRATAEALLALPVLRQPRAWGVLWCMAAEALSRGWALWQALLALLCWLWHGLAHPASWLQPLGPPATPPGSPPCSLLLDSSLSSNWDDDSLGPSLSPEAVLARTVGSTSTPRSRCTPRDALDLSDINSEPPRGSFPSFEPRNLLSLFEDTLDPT

As usually defined, the IC50 is the midpoint of a concentration-inhibition curve. In the case of `Nc1c(-c2ccc(F)c3[nH]ncc23)c2cc(C3CCC3)c3ncccc3c2[nH]c1=O` [Compound C91, 3-Amino-6-cyclobutyl-4-(7-fluoro-1H-indazol-4-yl)-1H-1,7-phenanthrolin-2-one], in assay [1], the “Bliss Score (Max)” value is listed as 59%. Moreover, the “HSA Score (MAX)” value in assay [1] was 61%. The figures for the IC50 in assay [2] and in assay [3] were 1.1 nM and 10 nM, respectively.

Turning to `Nc1c(-c2ccc(F)c3[nH]ncc23)c2cc(C3CCCC3)c3ncccc3c2[nH]c1=O` [Compound C92, 3-Amino-6-cyclopentyl-4-(7-fluoro-1H-indazol-4-yl)-1H-1,7-phenanthrolin-2-one], in assay [1], the “Bliss Score (Max)” value is 56% and the “HSA Score (MAX)” value came out at 68%. This compound also had an IC50 in assay [2] of 1.7 nM. In addition, in assay [3], the IC50 was 19 nM.

Take `Nc1c(-c2ccc(F)c3[nH]ncc23)c2cc(C3CCOCC3)c3ncccc3c2[nH]c1=O` [Compound C98, 3-Amino-4-(7-fluoro-1H-indazol-4-yl)-6-(oxan-4-yl)-1H-1,7-phenanthrolin-2-one]: in assay [1], the “Bliss Score (Max)” value is 46% and the “HSA Score (MAX)” value was found to be 53%. Also, the half-inhibitory concentration (IC50) in assay [2] is less than 4.6 nM. The compound also yielded an IC50 in assay [3] of 2.8 nM.

On to `Nc1c(-c2ccc(F)c3[nH]ncc23)c2cc(/C=C/CCO)c3ncccc3c2[nH]c1=O` [Compound C100, 3-Amino-4-(7-fluoro-1H-indazol-4-yl)-6-[(E)-4-hydroxybut-1-enyl]-1H-1,7-phenanthrolin-2-one], for which, in assay [1], the “Bliss Score (Max)” value was 46% and the “HSA Score (MAX)” value is recorded as 50%. Also, in assay [2], the IC50 stood at 5.5 nM. Further, the IC50 in assay [3] stood at 1.5 nM.

Turning to `Nc1c(-c2ccc(F)c3[nH]ncc23)c2cc(C3CCC4(CC3)OCCO4)c3ncccc3c2[nH]c1=O.O=C(O)C(F)(F)F` [Compound C101, 3-Amino-6-(1,4-dioxaspiro[4.5]decan-8-yl)-4-(7-fluoro-1H-indazol-4-yl)-1H-1,7-phenanthrolin-2-one 2,2,2-trifluoroacetate], in assay [1], the “Bliss Score (Max)” value worked out at 46% and the “HSA Score (MAX)” value is reported as 64%. For the same compound, the 50% inhibitory concentration (IC50) in assay [2] came out at 7.1 nM. For the same compound, the IC50 in assay [3] turned out to be 6.1 nM.

As to `CC(C)(O)C#Cc1cc2c(-c3ccc(F)c4[nH]ncc34)c(N)c(=O)[nH]c2c2cccnc12` [Compound C102, 3-Amino-4-(7-fluoro-1H-indazol-4-yl)-6-(3-hydroxy-3-methylbut-1-inyl)-1H-1,7-phenanthrolin-2-one], in assay [1], the “Bliss Score (Max)” value came out at 36% and the “HSA Score (MAX)” value is 49%. In assay [2], this compound returned an IC50 of less than 4.6 nM. The compound further displayed a half-maximal inhibitory concentration (IC50) in assay [3] of 3.8 nM.

For the compound `Nc1c(-c2ccc(F)c3[nH]ncc23)c2cc(C3CCN(C4CCC4)CC3)c3ncccc3c2[nH]c1=O` [Compound C134, 3-Amino-6-(1-cyclobutylpiperidin-4-yl)-4-(7-fluoro-1H-indazol-4-yl)-1H-1,7-phenanthrolin-2-one], in assay [1], the “Bliss Score (Max)” value turned out to be 49% and the “HSA Score (MAX)” value is given as 60%. The compound further came in with an IC50 in assay [2] of 7.6 nM. For the same compound, the IC50 in assay [3] was 3.6 nM.

`Nc1c(-c2ccc(F)c3[nH]ncc23)c2cc(C3CCN(C4COC4)CC3)c3ncccc3c2[nH]c1=O` [Compound C135, 3-Amino-4-(7-fluoro-1H-indazol-4-yl)-6-[1-(oxetan-3-yl)piperidin-4-yl]-1H-1,7-phenanthrolin-2-one]: in assay [1], the “Bliss Score (Max)” value is recorded as 48% and the “HSA Score (MAX)” value came out at 58%. In assay [2], this compound gave a 50% inhibitory concentration (IC50) of less than 4.6 nM. Besides, the half-maximal inhibitory concentration (IC50) in assay [3] worked out at 2.3 nM.

Consider `CC(C)N1CCC(c2cc3c(-c4ccc(F)c5[nH]ncc45)c(N)c(=O)[nH]c3c3cccnc23)CC1.O=CO` [Compound C136, 3-Amino-4-(7-fluoro-1H-indazol-4-yl)-6-(1-propan-2-ylpiperidin-4-yl)-1H-1,7-phenanthrolin-2-one; formate], for which, in assay [1], the “Bliss Score (Max)” value is reported as 45% and the “HSA Score (MAX)” value is recorded as 57%. This compound showed an IC50 in assay [2] of 8.3 nM. In assay [3], this compound yielded an IC50 of 3.4 nM.

Consider `Nc1c(-c2ccc(F)c3[nH]ncc23)c2cc(C3CCN(C4CCOCC4)CC3)c3ncccc3c2[nH]c1=O` [Compound C137, 3-Amino-4-(7-fluoro-1H-indazol-4-yl)-6-[1-(oxan-4-yl)piperidin-4-yl]-1H-1,7-phenanthrolin-2-one], for which, in assay [1], the “Bliss Score (Max)” value is 45% and the “HSA Score (MAX)” value is listed as 56%. This compound also gave an IC50 in assay [2] of 7.7 nM. Also, the IC50 in assay [3] was determined as 4.7 nM.

With `CN1CCC(c2cc3c(-c4ccc(F)c5[nH]ncc45)c(N)c(=O)[nH]c3c3cccnc23)CC1` [Compound C138, 3-Amino-4-(7-fluoro-1H-indazol-4-yl)-6-(1-methylpiperidin-4-yl)-1H-1,7-phenanthrolin-2-one], in assay [1], the “Bliss Score (Max)” value is on record as 73% and the “HSA Score (MAX)” value amounted to 73%. In addition, in assay [2], the IC50 was less than 4.6 nM. In assay [3], this compound showed an IC50 of 2 nM.

Consider `Nc1c(-c2ccc(F)c3[nH]ncc23)c2cc(C3CCC(=O)CC3)c3ncccc3c2[nH]c1=O` [Compound C139, 3-Amino-4-(7-fluoro-1H-indazol-4-yl)-6-(4-oxocyclohexyl)-1H-1,7-phenanthrolin-2-one], for which, in assay [1], the “Bliss Score (Max)” value is listed as 46% and the “HSA Score (MAX)” value came to 54%. The compound also returned a 50% inhibitory concentration (IC50) in assay [2] of 19 nM. Also, the IC50 in assay [3] worked out at 3.3 nM.

`Nc1c(-c2ccc(F)c3[nH]ncc23)c2cc([C@H]3CC[C@H](O)CC3)c3ncccc3c2[nH]c1=O` [Compound C140, 3-Amino-4-(7-fluoro-1H-indazol-4-yl)-6-((1r, 4r)-4-hydroxycyclohexyl)-1H-1,7-phenanthrolin-2-one]: in assay [1], the “Bliss Score (Max)” value came to 73% and the “HSA Score (MAX)” value was found to be 76%. The compound further displayed an IC50 in assay [2] of less than 4.6 nM. In assay [3], this compound gave a half-inhibitory concentration (IC50) of 1.7 nM.

Turning to `Nc1c(-c2ccc(F)c3[nH]ncc23)c2cc([C@H]3CC[C@@H](O)CC3)c3ncccc3c2[nH]c1=O` [Compound C141, 3-Amino-4-(7-fluoro-1H-indazol-4-yl)-6-((1s, 4s)-4-hydroxycyclohexyl)-1H-1,7-phenanthrolin-2-one], in assay [1], the “Bliss Score (Max)” value is given as 78% and the “HSA Score (MAX)” value is recorded as 72%. In assay [2], this compound registered an IC50 of 11 nM. The IC50 in assay [3] came to 4.9 nM.

On to `Nc1c(-c2ccc(Cl)c3[nH]ncc23)c2cc(C3CC3)c3ncccc3c2[nH]c1=O` [Compound C143, 3-Amino-4-(7-chloro-1H-indazol-4-yl)-6-cyclopropyl-1H-1,7-phenanthrolin-2-one], for which, in assay [1], the “Bliss Score (Max)” value is on record as 50%. The “HSA Score (MAX)” value in assay [1] is given as 67%. For the same compound, the IC50 in assay [2] turned out to be 0.2 nM; in assay [3] it was 2.7 nM.

Consider `Nc1c(-c2ccc(Cl)c3[nH]ncc23)c2ccc3ncccc3c2[nH]c1=O` [Compound C144, 3-Amino-4-(7-chloro-1H-indazol-4-yl)-1H-1,7-phenanthrolin-2-one], for which the “Bliss Score (Max)” value in assay [1] came to 39%. Besides, the “HSA Score (MAX)” value in assay [1] was 47%. Further, the 50% inhibitory concentration (IC50) is 0.32 nM in assay [2] and 7 nM in assay [3].

In the case of `Nc1c(-c2ccc(F)c3[nH]ncc23)c2cc(C3CCNC3)c3ncccc3c2[nH]c1=O.O=CO` (stereo not shown) [Compound C146, 3-Amino-4-(7-fluoro-1H-indazol-4-yl)-6-pyrrolidin-3-yl-1H-1,7-phenanthrolin-2-one; formate], in assay [1], the “Bliss Score (Max)” value is listed as 44% and the “HSA Score (MAX)” value is on record as 44%. Also, the half-inhibitory concentration (IC50) in assay [2] is 16 nM. Further, the IC50 in assay [3] was determined as 3.4 nM.

For `Cc1cc2c(-c3c(F)ccc4[nH]ncc34)c(N)c(=O)[nH]c2c2cccnc12` [Compound C155, 3-Amino-4-(5-fluoro-1H-indazol-4-yl)-6-methyl-1H-1,7-phenanthrolin-2-one], in assay [1], the “Bliss Score (Max)” value is reported as 47% and the “HSA Score (MAX)” value is listed as 61%. In addition, the IC50 in assay [2] was less than 4.6 nM. For the same compound, the IC50 in assay [3] turned out to be 2.3 nM.

As for `Nc1c(-c2cccc3[nH]ncc23)c2cc(C3CC3)c3ncccc3c2[nH]c1=O` [Compound C185, 3-Amino-6-cyclopropyl-4-(1H-indazol-4-yl)-1H-1,7-phenanthrolin-2-one], in assay [1], the “Bliss Score (Max)” value stood at 55% and the “HSA Score (MAX)” value is listed as 68%. In assay [2], half-maximal inhibition (IC50) required 0.31 nM. This compound gave an IC50 in assay [3] of 2.8 nM.

Consider `Cc1cc2c(-c3cc(F)c(F)c4[nH]ncc34)c(N)c(=O)[nH]c2c2cccnc12` [Compound C190, 3-amino-4-(6,7-difluoro-1H-indazol-4-yl)-6-methyl-1H-1,7-phenanthrolin-2-one], for which, in assay [1], the “Bliss Score (Max)” value was determined as 48% and the “HSA Score (MAX)” value was 66%. This compound also came in with an IC50 in assay [2] of 0.34 nM. The compound also yielded an IC50 in assay [3] of 2.5 nM.

As to `Nc1c(-c2cc(F)c(Cl)c3[nH]ncc23)c2cc(C3CC3)c3ncccc3c2[nH]c1=O` [Compound C195, 3-Amino-4-(7-chloro-6-fluoro-1H-indazol-4-yl)-6-cyclopropyl-1H-1,7-phenanthrolin-2-one], in assay [1], the “Bliss Score (Max)” value is given as 52% and the “HSA Score (MAX)” value is 65%. The compound further had an IC50 in assay [2] of 0.24 nM. Moreover, the IC50 in assay [3] was 2.3 nM.

Take `CC(=O)c1cc2c(-c3ccc(F)c4[nH]ncc34)c(N)c(=O)[nH]c2c2cccnc12` [Compound C200, 6-Acetyl-3-amino-4-(7-fluoro-1H-indazol-4-yl)-1H-1,7-phenanthrolin-2-one]: in assay [1], the “Bliss Score (Max)” value was found to be 44% and the “HSA Score (MAX)” value came out at 56%. In assay [2], this compound gave an IC50 of 7 nM. In assay [3], this compound came in with a half-maximal inhibitory concentration (IC50) of 2.4 nM.
